Data taken from patent publication US20220332821A1, “DOSING REGIMEN AND COMBINATION THERAPIES FOR MULTISPECIFIC ANTIBODIES TARGETING B-CELL MATURATION ANTIGEN” (NOVARTIS AG, priority 2019, published 2022).
Entries after “also recorded” stand apart in the source; their conditions may differ.

Key:
[1] = test system: membrane BCMA on KMS11 cells; experiment: BCMA membrane expression by flow cytometry after GSI treatment of KMS11 cells; assay type: cell-based, human
Description: (§1) KMS11-Luc cells were cultured in a 96-well round bottomed plate (Corning #3799) at 1.5×10^5 cells per well in a final volume of 200 μL that included a 12-point, 5-fold serial dilution of AL-102 in RPMI1640 (Gibco #11875-085) supplemented with 20% FBS (Seradigm #1500-500) and L-glutamine (Thermo Fisher #25030-081). The highest starting concentration of AL-102 was 1 μM. Cells were incubated for 20 hours at 37° C./5% CO2. Cells were pelleted, supernatant collected for measurement of shed BCMA levels, and cell pellets stained for evaluation of BCMA membrane expression levels.
Cells were pelleted by centrifugation, and supernatants were transferred to a fresh plate and frozen at −80° C. for later sBCMA analysis by ELISA. For membrane BCMA analysis, cell pellets were resuspended in 100 μL BD Stain Buffer containing BSA (BD#554657) and stained with anti-BCMA-PE (Biolegend, clone 19F2 1.25 ul/test) and Fixable Viability Dye eFluor506 (Thermo Scientific, 1:800 dilution) for 30 minutes at 4° C. Samples were analyzed by flow cytometry on a BD LSR Fortessa instrument. FlowJo v10 software was used for analysis. The anti-BCMA antibody binding capacity (ABC) on KMS11 cells was determined using Quantum Simply Cellular beads (Bangs Laboratories) following a vendor supplied protocol. The ABC is an estimate of the quantity of receptors per cell.

[2] = test system: KMS11-Luc cells; experiment: RTCC assay with KMS11-Luc and human T cells, BSBM3 and AL-102 matrix, Example 9; assay type: cell-based
Description: To evaluate the ability of AL-102 to enhance the activity of BSBM3, a redirected T cell cytotoxicity (RTCC) assay was performed using human T cells and a BCMA-expressing multiple myeloma cell line treated with dose range combinations of BSBM3 and AL-102 in a 10×8 matrix fashion. Human T cells were enriched from peripheral blood of three healthy human donors. First, peripheral blood mononuclear cells (PBMCs) were fractionated from donor blood using a Ficoll-Paque PLUS density gradient (GE Healthcare #17-1440-02) in Leucosep tubes (Greiner #227290) and stored as viable frozen aliquots in liquid nitrogen. PBMC were thawed and Pan T cells were isolated by negative selection according to manufacturer's recommended protocol (Miltenyi #130-096-535). The unlabeled cell fraction, enriched for T cells, was collected by manual magnetic separation on LS columns (Miltenyi #130-042-401). T cells were prepared in T cell media (TCM) consisting of RPMI-1640 (Gibco #11875-085), 10% FBS (Seradigm #1500-500), 1% Pen/Strep (Life Technologies #15070063), 1% L-glutamine (Thermo Scientific #25030-081), 1% Non-Essential Amino Acids (NEAA) (Life Technologies #11140-050), Sodium Pyruvate (NaPy) (Life Technologies #11360-070), HEPES (Life technologies, Cat #15630080), 0.1% 2-Betamercaptoethanol (2-BME) (Life Technologies, Cat #21985-023). KMS11 multiple myeloma cell line was cultured in RPMI1640 supplemented with 20% FBS (Gibco #11875-085, Seradigm #1500-500). The target MM cell line KMS11 was transduced to constitutively express luciferase (KMS11-Luc), and used to measure cell viability/survival. KMS11-Luc cells were pelleted and resuspended in fresh media immediately prior to plating to remove any basal level of shed BCMA that may be present. 7,500 KMS11-Luc target cells in 10 μL TCM were added to wells of 384-well plates (Corning #3765). 10 μl of BSBM3 at a concentration of 10 nM was serially diluted 5-fold, and 10 μl of AL-102 at a concentration of 1000 nM was serially diluted 5-fold, and dispensed into corresponding wells of the assay plates. 15,000 T cells were added to corresponding wells of the assay plate in 10 μL TCM for an E:T of 2:1. The assay was incubated at 37° C./5% CO2 for 48 hr, followed by measurement of luciferase activity to indicate target cell viability (BrightGlo, Promega #E2650) following manufacturer's protocols. Plates were read on an Envision plate reader. Target cells only (KMS11-Luc) without T cells or antibodies served as control and represent 100% luciferase activity (100% viability). Data were plotted and analyzed using GraphPad Prism. EC50 values were calculated using sigmoidal, 4-parameter non-linear regression curve fit.

[3] = test system: BCMA shedding in KMS11 cells; experiment: Shed BCMA levels by ELISA after GSI treatment of KMS11 cells; assay type: cell-based, human; details: 20 hours, serial dilution from 1 μM
Description: as §1
Soluble BCMA levels in supernatant were determined by ELISA following a vendor supplied protocol (R&D Systems #DY193). Briefly, recombinant human BCMA-Fc protein was included in the kit, and used to generate a standard curve. Collected samples were assayed and sBCMA concentrations extrapolated from the standard curve. Quantified values as determined by the kit were divided by 5.5 to correct for a molecular mass difference between BCMA-Fc fusion protein used in the kit as a standard curve (32,554.6 Da) and the mass of endogenously shed BCMA extra-cellular domain (5,899.3 Da). The results were analyzed using SoftMax Pro v5.4.1 and graphed in GraphPad Prism.

Cc1cccc2c1NC(=O)[C@@H](NC(=O)[C@H](CCC(F)(F)F)[C@H](CCC(F)(F)F)C(N)=O)N=C2c1cccc(F)c1 [AL-102]
increase in cell surface BCMA expression ([1]; 1 μM AL-102 versus untreated KMS11 cells): 20 fold
average BCMA antibody-binding capacity (ABC) ([1]; KMS11 cells, 1 μM AL-102, 20 hours, untreated ˜14,000): ~285,000
AL-102 concentration with minimal effect on BSBM3 potency ([2]; RTCC combination matrix): ≤ 0.32 nM
AL-102 concentration with moderate effect on BSBM3 potency ([2]; RTCC combination matrix): 1.6 nM
AL-102 concentrations with maximum enhancement of BSBM3 potency ([2]; RTCC combination matrix): ≥ 8 nM
effect of AL-102 on RTCC potency of BSBM3 (in words) ([2]; combination with BSBM3): synergistically enhanced the RTCC potency of BSBM3; also recorded: enhanced the RTCC potency of BSBM3 in a dose dependent manner
inhibition of BCMA shedding [3]: effectively inhibited shedding of BCMA from KMS11 cells in a dose-dependent manner
